Measurements taken from patent US20030232862A1 (priority 2002, published 2003).
Read-outs that look alike come from different tables or passages of the source. Blank lines part the entries; values can stand above or below the compound they belong to.

Columns and labels:
[1] = target: T1, PDE Peak A (PDE5) from SW480 cells (Homo sapiens, UniProt O76074); assay: cGMP hydrolysis by PDE Peak A (PDE5) isolated from SW480 cells; type: biochemical
T1 construct: To isolate the novel phosphodiesterase from SW480, approximately four hundred million SW480 cells were grown to confluence; endogenous in cells; host or cells: SW480 colon cancer cells; 105,000 g supernatant, DEAE-Trisacryl M fraction

Cyclooxygenase (COX) = target: T2, Cyclooxygenase (COX) (Ovis aries, UniProt P05979); assay: COX inhibition assay, single dose screen (Table 2); type: biochemical; conditions: for COX Inhibition: Table 9 qualitative profile
T2 sequence (P05979 25-600): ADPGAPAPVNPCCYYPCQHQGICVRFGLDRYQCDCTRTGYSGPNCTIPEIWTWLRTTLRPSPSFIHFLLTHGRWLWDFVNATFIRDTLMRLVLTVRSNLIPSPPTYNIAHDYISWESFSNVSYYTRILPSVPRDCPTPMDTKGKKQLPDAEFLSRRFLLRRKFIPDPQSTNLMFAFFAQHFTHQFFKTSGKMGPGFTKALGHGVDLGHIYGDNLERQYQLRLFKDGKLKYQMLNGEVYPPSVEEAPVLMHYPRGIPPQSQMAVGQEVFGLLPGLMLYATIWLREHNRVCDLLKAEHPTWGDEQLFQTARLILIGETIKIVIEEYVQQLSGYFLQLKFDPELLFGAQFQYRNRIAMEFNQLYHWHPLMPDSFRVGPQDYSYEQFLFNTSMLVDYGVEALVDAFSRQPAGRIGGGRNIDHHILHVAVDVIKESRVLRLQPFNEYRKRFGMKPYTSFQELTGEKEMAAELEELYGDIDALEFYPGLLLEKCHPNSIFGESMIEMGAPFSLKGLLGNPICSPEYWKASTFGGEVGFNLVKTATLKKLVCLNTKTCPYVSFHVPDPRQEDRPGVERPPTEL

[2] = tested on: premalignant lesions in mouse mammary gland organ culture; assay: Mammary gland organ culture model; for mammary gland organ culture: key: −: Not active; +: Slightly active; + +: Moderately active; + + +: Strongly active; + + + +: Highly active; type: cell-based; conditions: for inhibition of formation of premalignant lesions: FIG. 17
Source text: Test compounds identified by the above methods can be tested for antineoplastic activity by their ability to inhibit the incidence of pre-neoplastic lesions in a mammary gland organ culture system. This mouse mammary gland organ culture technique has been successfully used by other investigators to study the effects of known antineoplastic agents such as certain NSAIDs, retinoids, tamoxifen, selenium, and certain natural products, and is useful for validation of the screening method of the present invention.
For example, female BALB/c mice can be treated with a combination of estradiol and progesterone daily, in order to prime the glands to be responsive to hormones in vitro. The animals are sacrificed, and thoracic mammary glands are excised aseptically and incubated for ten days in growth media supplemented with insulin, prolactin, hydrocortisone, and aldosterone. DMBA (7,12-dimethylbenz(a)anthracene) is added to medium to induce the formation of premalignant lesions. Fully developed glands are then deprived of prolactin, hydrocortisone, and aldosterone, resulting in the regression of the glands but not the pre-malignant lesions.
The test compound is dissolved in DMSO and added to the culture media for the duration of the culture period. At the end of the culture period, the glands are fixed in 10% formalin, stained with alum carmine, and mounted on glass slides. The incidence of forming mammary lesions is the ratio of the glands with mammary lesions to […]. The incidence of mammary lesions in test compound treated glands is compared with that of the untreated glands.
The extent of the area occupied by the mammary lesions can be quantitated by projecting an image of the gland onto a digitation pad. The area covered by the gland is traced on the pad and considered as 100% of the area. The space covered by each of the non-regressed structures is also outlined on the digitization pad and quantitated by the computer.
Mammary gland organ culture experiment were performed as previously described (Mehta and Moon, Cancer Research, 46: 5832-5835, 1986).

[3] = tested on: HT-29 colon adenocarcinoma cells; assay: Apoptosis by DNA fragmentation assay in HT-29 cells; type: cell-based, human; conditions: Table 9 qualitative profile; note: key: −: Not active; +: Slightly active; + +: Moderately active; + + +: Strongly active; + + + +: Highly active
[4] = target: cGMP PDE purified from human colon HT-29 cultured tumor cells (Homo sapiens, UniProt O76074); assay: cGMP PDE inhibition assay; type: biochemical; conditions: for PDE Inhibition: Table 9 qualitative profile
HT-29 cells = assay: Growth inhibition of HT-29 cells (SRB assay; trypan blue counting in time course); type: cell-based, human; conditions: for Growth Inhibition: Table 9 qualitative profile
[5] = tested on: SW-480 colon adenocarcinoma cells; assay: Apoptosis fold induction protocol (DNA fragmentation, Table 4); conditions: 100 μM; cell line not given
[6] = target: T3, cGMP binding sites of GST-cGB-PDE5 fusion protein (Homo sapiens, UniProt O76074); assay: cGMP binding assay with GST-cGB-PDE5 fusion protein; conditions: for competition with cGMP binding at high concentration: 100 μM, cGMP 2 μM
T3 construct: made in house; host or cells: E. coli BL21 (DE3)

[7] = tested on: Peak B's (from SW480, HTB-26, and LnCAP); assay: FPLC-isolated Peak B PDE activity from three neoplastic cell lines; type: biochemical
Experimental: The novel Peak B was also isolated from two other neoplastic cell lines, a breast cancer cell line, HTB-26, and a prostate cancer cell line, LnCAP, by a procedure similar to the one above used to isolate it from SW480. The protocol was modified in several respects. To provide even greater reproducibility to allow comparison of different cell lines, a Pharmacia AKTA FPLC was used to control sample loading and elution on an 18 mL DEAE TrisAcryl M column. SW840 was run by this same procedure multiple times to provide a reference of Peak B. 200-400 million cells of SW480 were used for the profiles. 70 million cells of LnCAP were used for a profile (see FIGS. 22 and 23), and in a separate experiment 32 million cells of HTB-26 were used for a profile (see FIGS. 20 and 21). After re-suspending cells in homogenization buffer, samples were manually homogenized. FPLC buffer A was 8 mM TRIS-acetate, 5 mM Mg acetate, 0.1 mM EDTA, pH 7.5 and buffer B was 8 mM TRIS-acetate, 5 mM Mg acetate, 0.1 mM EDTA, 1 M Na acetate, pH 7.5. Supernatants were loaded onto the column at 1 mL per minute, followed by a wash with 60 mL buffer A at 1 mL per minute. A gradient was run from 0-15% buffer B in 60 mL, 15-50% buffer B in 60 mL, and 50-100% buffer B in 16 mL. During the gradient 1.5 mL fractions were collected.

Compound: 5-fluoro-2-methyl-1-(p-methylsulfinylbenzylidene)-3-indenylacetic acid [Sulindac sulfide, reference compound]
competitive (with cGMP) inhibition/binding, Peak A [1]: competitively inhibited | % Inhibition at 100 μM (cyclooxygenase) (Cyclooxygenase (COX)): 97% | COX Inhibition (Cyclooxygenase (COX)): + + + + | inhibition of formation of premalignant lesions [2]: inactive | Apoptosis [3]: + + + | % Inhibition at 10 μM (cGMP PDE) [4]: 97% | PDE Inhibition [4]: + + + | IC50 ([4]; read-out: IC50 for inhibition of cGMP PDE): 17 µM

% Inhibition at 100 μM (cyclooxygenase) (Cyclooxygenase (COX)): <25%
Compound: CC(=O)NC(CSC12CC(=O)OC1(C)/C(=C/c1ccc(S(C)(=O)=O)cc1)c1ccc(F)cc12)C(=O)O (racemic) [D, rac-(E)-1-(butan-1′,4′-olido)-[3′,4′:1,2]-6-fluoro-2-methyl-3-(p-methylsulfonylbenzylidene)-1S-indanyl-N-acetylcysteine]
% Inhibition at 100 μM (growth) (HT-29 cells): 78% | Growth Inhibition (HT-29 cells): + +

Compound: CCCCCC[C@@H]([C@@H](C)O)n1cnc2c(N)ncnc21 (racemic) [EHNA]
Fold induction at 100 μM (apoptosis) [5]: <2.0 fold

competition with cGMP in binding of GST-cGB-PDE5 ([6]; 3H-cGMP 2 μM): did not compete
Compound: CCCCOC1C2OP(=O)(O)OCC2OC1n1cnc2c(N)ncnc21 (centres unmarked) [2′-O-butyl-cAMP]

competition with cGMP in binding of GST-cGB-PDE5 ([6]; 3H-cGMP 2 μM): did not compete
Compound: CCCCOC1C2OP(=O)(O)OCC2OC1n1cnc2c(=O)[nH]c(N)nc21 (centres unmarked) [2′-O-butyl-cGMP]

Compound: CC1=C(CC(=O)O)c2cc(F)ccc2/C1=C\c1ccc(Cl)cc1 [Compound C, (Z)-5-Fluoro-2-methyl-1-(p-chlorobenzylidene)-3-acetic acid]
% Inhibition at 100 μM (growth) (HT-29 cells): 80% | % Inhibition at 10 μM (cGMP PDE) [4]: <25%

Compound: Nc1ncnc2c1ncn2[C@@H]1O[C@@H]2COP(=O)(O)O[C@H]2[C@H]1O [Cyclic AMP]
competition with cGMP in binding of GST-cGB-PDE5 [6]: did not compete

competition with cGMP binding at high concentration [6]: partially compete
Compound: O=c1[nH]cnc2c1ncn2[C@@H]1O[C@@H]2COP(=O)(O)O[C@H]2[C@H]1O [Cyclic IMP]

competition with cGMP binding at high concentration [6]: partially compete
Compound: Nc1nc2c(nc(Br)n2[C@@H]2O[C@@H]3COP(=O)(O)O[C@H]3[C@H]2O)c(=O)[nH]1 [Example 8-bromo-cGMP]

Compound: O=C([O-])C1CCN(c2nc(NCc3ccc4c(c3)OCO4)c3cc(Cl)ccc3n2)CC1.[Na+] [Example E4021, reference compound]
% Inhibition at 100 μM (growth) (HT-29 cells): <50% | sensitivity of Peak B cGMP PDE activity ([7]; 100 nM, 0.25 μM cGMP): resistant

PDE Inhibition [4]: −
Compound: CC1=C(CC(=O)N(C2CCCCC2)C2CCCCC2)c2cc(F)ccc2/C1=C\c1ccc(S(C)(=O)=O)cc1 [F, (Z)-5-Fluoro-2-methyl-1-(p-methylsulfonylbenzylidene)-3-indenylacetamide, N,N′-dicyclohexyl]
Growth Inhibition (HT-29 cells): + +

% Inhibition at 100 μM (cyclooxygenase) (Cyclooxygenase (COX)): 94% | COX Inhibition (Cyclooxygenase (COX)): + + +
Compound: Clc1cccc(Nc2nnc(-c3ccccc3)c3ccccc23)c1 [MY5445, 1-(3-chloroanilino)-4-phenyphthalazine, reference compound]
Growth Inhibition (HT-29 cells): + + + | Apoptosis [3]: + + +

Compound: COc1ccc(C2CNC(=O)C2)cc1OC1CCCC1 (centres unmarked) [Rolipram]
inhibition of cAMP PDE activity in Peak B fractions [7]: inhibited most of the cAMP PDE activity

Compound: CCCc1nn(C)c2c(=O)[nH]c(-c3cc(S(=O)(=O)N4CCN(C)CC4)ccc3OCC)nc12 [Sildenafil, reference compound]
inhibition of activity of Peak A [1]: inhibited activity of Peak A

competition with cGMP in binding of GST-cGB-PDE5 ([6]; 3H-cGMP 2 μM): did not compete
Compound: Nc1ccn([C@@H]2O[C@@H]3COP(=O)(O)O[C@H]3[C@H]2O)c(=O)n1 [cCMP]

competition with cGMP in binding of GST-cGB-PDE5 ([6]; 3H-cGMP 2 μM): did not compete
Compound: O=c1ccn([C@@H]2O[C@@H]3COP(=O)(O)O[C@H]3[C@H]2O)c(=O)[nH]1 [cUMP]

Compound: CC1=C(CC(=O)O)c2cc(F)ccc2/C1=C\c1ccc([S+](C)[O-])cc1 (centres unmarked) [sulindac, reference compound]
inhibition of formation of premalignant lesions [2]: effectively inhibit

PDE Inhibition [4]: −
Compound: rac-(E)-1-(butan-1′,4′-olido)-[3′,4′:1,2]-6-fluoro-2-methyl-3-(p-methylsulfonylbenzylidene)-1S-indanyl-glutathione)
Growth Inhibition (HT-29 cells): + +

PDE Inhibition [4]: −
Compound: ribo-(E)-1-Triazolo-[2′,3′:1″,3″]-1-(butan-1′,4′-olido)-[3′,4′:1,2]-6-fluoro-2-methyl-3-(p-methylsulfonylbenzylidene)-indan [G]
Growth Inhibition (HT-29 cells): + + | Mammary Gland Organ Culture ([2]; Table 9 qualitative profile): + + + | Apoptosis [3]: + +
